# Data taken from article PMC8131363 (Scientific Reports, 2021).
# Where two headings read alike, the source gives them in different places. Starred links: 1 amine or outer side, 2 acyl side, 3 side chain; linkers in the order of their positions; H or OH if unused. Non-standard residues stand in square brackets, D forms with d. No end group written: not given here. βAsp = O=C(O)[C@H](CC(=O)[*:2])N[*:1]
# What was measured:
# [1] = molecular target: domestic cat Calcium Sensing Receptor (cCaSR) (Felis catus)
# cCaSR [2] = molecular target: T1, cCaSR (Felis catus, UniProt C7FF08); assay: cCaSR PAM luminescence assay, double injection with 0.5 mM CaCl2, HEK293/T-REx/natClytin-cCaSR; conditions: Supplementary Table I, PAM assay, dash = no activity
# T1 sequence (C7FF08 1-1081): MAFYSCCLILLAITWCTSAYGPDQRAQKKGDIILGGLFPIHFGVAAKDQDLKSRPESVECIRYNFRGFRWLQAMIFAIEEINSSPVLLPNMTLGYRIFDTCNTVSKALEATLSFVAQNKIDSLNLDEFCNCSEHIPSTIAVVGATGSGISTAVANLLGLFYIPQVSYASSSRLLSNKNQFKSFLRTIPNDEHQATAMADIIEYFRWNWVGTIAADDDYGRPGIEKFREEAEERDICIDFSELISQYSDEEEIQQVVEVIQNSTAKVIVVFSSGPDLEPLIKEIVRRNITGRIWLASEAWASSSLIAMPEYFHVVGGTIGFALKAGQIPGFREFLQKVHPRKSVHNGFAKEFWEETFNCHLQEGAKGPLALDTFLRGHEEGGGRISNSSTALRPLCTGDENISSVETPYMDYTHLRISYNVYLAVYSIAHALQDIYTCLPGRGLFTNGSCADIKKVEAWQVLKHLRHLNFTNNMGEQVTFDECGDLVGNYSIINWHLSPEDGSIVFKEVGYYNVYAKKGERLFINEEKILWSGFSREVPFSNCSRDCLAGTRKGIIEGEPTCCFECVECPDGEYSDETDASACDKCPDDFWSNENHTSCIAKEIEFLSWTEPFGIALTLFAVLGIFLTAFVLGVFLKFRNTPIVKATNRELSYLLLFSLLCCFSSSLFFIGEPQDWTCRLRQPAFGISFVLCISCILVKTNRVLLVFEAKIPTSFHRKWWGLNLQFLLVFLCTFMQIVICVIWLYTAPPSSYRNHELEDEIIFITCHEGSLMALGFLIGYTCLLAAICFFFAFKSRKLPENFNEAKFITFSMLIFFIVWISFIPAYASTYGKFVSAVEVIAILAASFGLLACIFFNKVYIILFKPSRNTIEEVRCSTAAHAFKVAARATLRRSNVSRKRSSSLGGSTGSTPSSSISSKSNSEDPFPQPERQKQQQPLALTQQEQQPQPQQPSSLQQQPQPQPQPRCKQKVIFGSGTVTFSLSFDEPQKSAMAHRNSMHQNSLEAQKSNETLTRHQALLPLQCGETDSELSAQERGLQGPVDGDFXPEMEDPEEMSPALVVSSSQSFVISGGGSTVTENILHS
# cCaSR [3] = molecular target: T1, cCaSR; assay: cell-based
# cCaSR [4] = molecular target: T1, cCaSR
# hCaSR = molecular target: T2, hCaSR (Homo sapiens, UniProt P41180); assay: hCaSR transiently expressed in HEK293/natClytin, agonist luminescence assay; format: cell-based; conditions: transiently expressed hCaSR; for EC50: > 3 mM = maximal response not reached, read-out: hCaSR EC50
# T2 construct: expressed in transfected cells; host or cells: HEK293/natClytin (transient, pcDNA6 as delivered by GeneArt)
# T2 sequence (P41180 20-1078): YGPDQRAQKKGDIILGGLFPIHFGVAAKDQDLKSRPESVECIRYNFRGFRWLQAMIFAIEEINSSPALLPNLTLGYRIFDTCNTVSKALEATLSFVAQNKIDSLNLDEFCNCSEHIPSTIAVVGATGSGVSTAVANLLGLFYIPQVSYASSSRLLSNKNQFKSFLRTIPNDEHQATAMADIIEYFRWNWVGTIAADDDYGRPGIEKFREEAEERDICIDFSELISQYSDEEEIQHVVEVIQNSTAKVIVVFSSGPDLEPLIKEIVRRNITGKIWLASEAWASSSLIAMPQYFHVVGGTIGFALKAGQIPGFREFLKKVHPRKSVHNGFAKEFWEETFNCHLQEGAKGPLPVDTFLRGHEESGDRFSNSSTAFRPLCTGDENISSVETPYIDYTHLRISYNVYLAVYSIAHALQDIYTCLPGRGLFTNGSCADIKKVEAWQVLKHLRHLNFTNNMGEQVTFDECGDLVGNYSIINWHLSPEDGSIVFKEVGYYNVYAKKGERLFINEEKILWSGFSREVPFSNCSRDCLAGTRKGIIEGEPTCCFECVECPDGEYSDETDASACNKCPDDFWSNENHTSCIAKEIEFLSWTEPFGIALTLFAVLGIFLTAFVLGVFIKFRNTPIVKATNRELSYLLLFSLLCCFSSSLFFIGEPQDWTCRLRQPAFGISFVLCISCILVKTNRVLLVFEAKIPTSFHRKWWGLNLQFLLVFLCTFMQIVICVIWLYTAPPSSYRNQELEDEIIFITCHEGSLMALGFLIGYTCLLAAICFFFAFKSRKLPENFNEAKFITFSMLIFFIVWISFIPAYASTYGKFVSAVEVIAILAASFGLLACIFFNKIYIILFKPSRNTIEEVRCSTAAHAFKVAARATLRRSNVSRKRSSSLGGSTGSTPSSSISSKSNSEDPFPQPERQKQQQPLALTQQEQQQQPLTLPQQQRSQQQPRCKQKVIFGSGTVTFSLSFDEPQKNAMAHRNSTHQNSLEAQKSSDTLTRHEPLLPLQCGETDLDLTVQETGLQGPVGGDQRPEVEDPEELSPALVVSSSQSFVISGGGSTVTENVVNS
# Protocol: (§1) The coding sequence of the Felis catus[52] and Homo sapiens[53] CaSR gene was synthesised by GeneArt (Thermo Fisher Scientific). The cat coding sequence was excised from the GeneArt construct and inserted in pcDNA3.1 for constitutive and transient expression or pcDNA5/ TO for inducible expression. For the human sequence the pcDNA6 vector as delivered by GeneArt was used without further sub-cloning.
# (§2) All transient transfections were performed with Lipofectamine 2000 (Invitrogen) according to the manufacturer’s protocol.
# cCaSR [5] = molecular target: T1, cCaSR; assay: cCaSR transiently expressed in HEK293/natClytin, agonist luminescence assay; format: cell-based; conditions: transiently expressed cCaSR; for EC50: > 3 mM = maximal response not reached, read-out: cCaSR EC50
# Protocol: as §1, §2
# [6] = EC50 (M), agonist assay, stable inducible cCaSR line, > 0.01 M = maximal response not reached
# [7] = EC50 Ago (M), Supplementary Table I, agonist assay, > 0.01 M = maximal response not reached
# [8] = cCaSR activity, agonist assay, stable inducible cCaSR line, at least three wells
# [9] = EC50 Value (heat map Fig. 5), cCaSR agonists, heat map
# [10] = cCaSR stable EC50(mM), stably expressed cCaSR, Fig. 6b, > 3 mM = maximal response not reached
Compound,EC50 PAM (M) (cCaSR [2]),EC50 (cCaSR [3]; [8]),EC50 (hCaSR),EC50 (cCaSR [5]),EC50 (cCaSR [3]; [10]),other results
3-Glutathionyl-S-methylindole (peptide),,,,,,"EC50 of agonist activity, luminescence (natClytin) in HEK T-Rex/natClytin cells inducibly expressing cCaSR, calcium-free buffer; activity grade ++ [1]: 3.74 mM"
N[C@@H](CCC(=O)O)C(=O)O [L-Glutamic acid],-,> 0.01 M,> 3 mM,> 3 mM,,"EC50 (cCaSR [3]; [7]): 0.00916 M; EC50 (cCaSR [3]; [9]): 0.00903 M; EC50 (cCaSR [3]; cCaSR stable EC50(mM), […], > 3 mM = maximal response not reached): > 0.003 M; agonist activity on cCaSR (in words) (cCaSR [4]): strong agonist activity"
C[Se]C[C@H](N)C(=O)O [Se-(Methyl)selenocysteine],-,0.001 to 0.01 M,,,,EC50 (cCaSR [3]; [6]): 0.00447 M; EC50 (cCaSR [3]; [7]): 0.00447 M; agonist activity on cCaSR (in words) (cCaSR [4]): agonist activity
C[C@H](NC(=O)CC[C@H](N)C(=O)O)C(=O)O [γ-Glu-Ala],-,> 0.01 M,> 3 mM,> 3 mM,> 0.003 M,EC50 (cCaSR [3]; [9]): 0.00295 M
CC(C)[C@H](NC(=O)CC[C@H](N)C(=O)O)C(=O)O [γ-Glu-Val],-,0.001 to 0.01 M,> 3 mM,> 3 mM,> 0.003 M,EC50 (cCaSR [3]; [6]): 0.00452 M; EC50 (cCaSR [3]; [7]): 0.00452 M
Glutathione (peptide),,,,,,"EC50 of agonist activity, luminescence (natClytin) in HEK T-Rex/natClytin cells inducibly expressing cCaSR, calcium-free buffer; activity grade ++ [1]: 6.39 mM"
Poly-L-arginine,-,,,,,"cCaSR stable EC50 (cCaSR [4]): 8.0 µg/mL; EC50 (cCaSR [4]; agonist assay, stable inducible cCaSR line, > 0.01 M = maximal response not reached): 0.00101 mM; EC50 (cCaSR [4]; read-out: EC50 Ago, Supplementary Table I, agonist assay, > 0.01 M = maximal response not reached): 0.00101 mM; EC50 (cCaSR [4]; read-out: cCaSR activity, agonist assay, stable inducible cCaSR line, at least three wells): < 1 mM; hCaSR EC50 (hCaSR): 2.5 µg/mL; cCaSR EC50 (cCaSR [5]): 2.9 µg/mL"
Poly-L-lysine (peptide),,,,,,"EC50 of agonist activity, luminescence (natClytin) in HEK T-Rex/natClytin cells inducibly expressing cCaSR, calcium-free buffer; activity grade + [1]: > 10 mM"
S-(2-Hydroxyethyl)glutathione (peptide),,,,,,"EC50 of agonist activity, luminescence (natClytin) in HEK T-Rex/natClytin cells inducibly expressing cCaSR, calcium-free buffer; activity grade ++ [1]: 2.11 mM"
S-Lactoylglutathione (peptide),,,,,,"EC50 of agonist activity, luminescence (natClytin) in HEK T-Rex/natClytin cells inducibly expressing cCaSR, calcium-free buffer; activity grade + [1]: > 10 mM"
S-Methylglutathione (peptide),,,,,,"EC50 of agonist activity, luminescence (natClytin) in HEK T-Rex/natClytin cells inducibly expressing cCaSR, calcium-free buffer; activity grade ++ [1]: 4.42 mM"
[βAsp]-Ala,,,,,,"EC50 of agonist activity, luminescence (natClytin) in HEK T-Rex/natClytin cells inducibly expressing cCaSR, calcium-free buffer; activity grade + [1]: > 10 mM"
[βAsp]-Gly,,,,,,"EC50 of agonist activity, luminescence (natClytin) in HEK T-Rex/natClytin cells inducibly expressing cCaSR, calcium-free buffer; activity grade + [1]: > 10 mM"

# Further lines, with some results ahead:
EC50 PAM (M) (cCaSR [2]),EC50 (cCaSR [3]; [8]),EC50 (hCaSR),EC50 (cCaSR [5]),EC50 (cCaSR [3]; [10]),Compound,other results
-,0.001 to 0.01 M,11.9 mM,11.8 mM,,N[C@@H](CC(=O)O)C(=O)O [L-Aspartic acid],EC50 (cCaSR [3]; [6]): 0.00411 M; EC50 (cCaSR [3]; [7]): 0.00411 M; agonist activity on cCaSR (in words) (cCaSR [4]): strong agonist activity
,,> 3 mM,> 3 mM,> 0.003 M,NCCCCN [Putrescine],
,,0.16 mM,0.28 mM,4e-05 M,"NC[C@H]1O[C@H](O[C@H]2[C@H](O)[C@@H](O[C@H]3O[C@H](CO)[C@@H](O)[C@H](N)[C@H]3O)[C@H](N)C[C@@H]2N)[C@H](N)C[C@@H]1O [Tobramycin, reference compound]","EC50 Ago (M) (cCaSR [4]; Supplementary Table I, agonist assay, dash = no activity): -"
-,0.001 to 0.01 M,> 3 mM,> 3 mM,> 0.003 M,CC[C@H](NC(=O)CC[C@H](N)C(=O)O)C(=O)NCC(=O)O [γ-Glu-Abu-Gly],EC50 (cCaSR [3]; [6]): 0.00265 M
-,,4.1 mM,3.6 mM,0.0069 M,CC(C)[C@H](NC(=O)CC[C@H](N)C(=O)O)C(=O)NCC(=O)O [γ-Glu-Val-Gly],EC50 (cCaSR [3]; [6]): 0.00422 M
